Measurements from patent US5624935A, “Heterocyclic compounds having anti-diabetic activity and their use” (Sankyo Company, Limited, priority 1994, dated 1997).

Legend:
[1] = molecular target: T1, Bovine lens aldose reductase (Bos taurus, UniProt P16116); assay: Inhibition of Aldose reductase; format: biochemical; details: for inhibition at 5 µg/mL: read-out: Inhibition at 5 μg/ml
T1 construct: Bovine lens aldose reductase was separated and partially purified; from tissue; host or cells: bovine lens
Protocol: Bovine lens aldose reductase was separated and partially purified by the method of S. Hyman and J. H. Kinoshita [J. Biol. Chem., 240, 877 (1965)] and K. Inagaki, I. Miwa and J. Okuda [Arch. Biochem. Biophys., 316, 337 (1982)], and its activity was determined photometrically by the method of Varma et al. [Biochem. Pharmac., 25, 2505 (1976)]. Inhibition of enzyme activity was measured for the compounds of the present invention at a concentration of 5 μg/ml, and the measured values were used to calculate the IC50 values.

blood glucose level = assay: Hypoglycemic activity in hyperglycemic KK mice; format: in vivo, hyperglycemic male mice of the KK strain; details: Mus musculus, oral, 18 hours, vs solvent-only group, read-out: Hypoglycemic effect
Protocol: The test animals used were hyperglycemic male mice of the KK strain, each having a body weight of at least 40 g. The compounds under test were mixed with a 1:1 by volume mixture of polyethylene glycol 400 and water. Each animal was orally administered a test compound in the amount shown in the following Table 6 and then allowed to feed freely for 18 hours. At the end of this time, blood was collected from the tail veins without anesthesia. The blood glucose level (BGL) was determined by means of a glucose analyzer (GL-101, manufactured by Mitsubishi Kasei Co. or a Glucoroder-F manufactured by Shino Test Co.).
The hypoglycemic effect was calculated by the following equation: [formula] where: BGLs is the blood glucose level in the group administered a solvent only, but no active compound; and
BGLt is the blood glucose level in the group administered a test compound.
The results are shown in the following Table 6, in which each compound of the present invention is identified by the number of one of the following Examples in which its preparation is illustrated.

male F344 rats = assay: Toxicity, 2 weeks oral in rats; format: in vivo; details: for mortality rate: oral, 50 mg/kg per day, 2 weeks, male F344 rats; for abnormalities which could be attributed to the test compounds: rat, in vivo, po, 50 mg/kg/day
Protocol: The toxicity of the compounds of the present invention was tested on male F344 rats, divided into groups of 5. The test compound was adminstered orally to each test animal at a dose of 50 mg/kg of body weight per day for 2 weeks. The test compounds used were those of Examples 7 and 17 .

`O=C1NC(=O)C(Cc2ccc(OCC3Cc4ccccc4N3)cc2)S1` (stereo not drawn) [Example 1, 5-[4-(Indolin-2-ylmethoxy)benzyl]thiazolidine-2,4-dione] gave an inhibition at 5 µg/mL [1] of 54.5% and an inhibition in vivo at 10 mg/kg (blood glucose level) of 13.2%.

`CN1c2ccccc2CC1COc1ccc(CC2SC(=O)NC2=O)cc1` (stereo not drawn) [Example 2, 5-[4-(1-Methylidolin-2-ylmethoxy)benzyl]thiazolidine-2,4-dione] showed an IC50 [1] of 8.68 µM, an inhibition at 5 µg/mL [1] of 58.1% and an inhibition in vivo at 1 mg/kg (blood glucose level) of 27.7%.

In the case of `O=C1NC(=O)C(Cc2ccc(OCCN3CCc4ccccc43)cc2)S1` (stereo not drawn) [Example 3, 5-{4-[2-(Indolin-1-yl)ethoxyl]benzyl}thiazolidine-2,4-dione], the IC50 [1] is reported as 10 µM and the inhibition in vivo at 10 mg/kg (blood glucose level) is reported as 27%.

`O=C1NC(=O)C(Cc2ccc(OCCc3c[nH]c4ccccc34)cc2)S1` (stereo not drawn) [Example 4, 5-{4-[2-(Indol-3-yl)ethoxy]benzyl}thiazolidine-2.4dione] showed an IC50 [1] of 6.28 µM.

In the case of `O=C1NC(=O)C(Cc2ccc(OCCn3cc(C(c4ccccc4)(c4ccccc4)c4ccccc4)c4ccccc43)cc2)S1` (stereo not drawn) [Example 5, 5-{4-[2-(3-Triphenylmethylindol-1-yl)ethoxyl]-benzyl}thiazolidine-2,4-dione], the inhibition in vivo at 10 mg/kg (blood glucose level) is reported as 16.2%.

`O=C1NC(=O)C(Cc2ccc(OCCn3ccc4ccccc43)cc2)S1` (stereo not drawn) [Example 6, 5-{4-[2-(Indol-1-yl)ethoxy]benzyl}thiazolidine-1-dione] showed an inhibition at 5 µg/mL [1] of 47% and an inhibition in vivo at 10 mg/kg (blood glucose level) of 20.9%.

`Cn1c(COc2ccc(CC3SC(=O)NC3=O)cc2)nc2cccnc21` (stereo not drawn) [Example 7, 5-{4-(3-Methyl-3H-imidazo[4,5-b]pyridin-2-methoxyl)-benzyl}thiazolidine-2,4-dione] was tested, and the IC50 [1] was 2.71 µM, the inhibition in vivo at 1 mg/kg (blood glucose level) was 24.7% and the mortality rate (male F344 rats) was “zero”. For the same molecule, the “abnormalities which could be attributed to the test compounds” value (male F344 rats) was “no abnormalities”.

For `O=C1NC(=O)C(Cc2ccc(OCc3cn4ccccc4n3)cc2)S1` (stereo not drawn) [Example 9, 5-{4-(Imidazo[1,2-a]pyridin-2-ylmethoxy)benzyl}-thiazolidine2,4-dione], the inhibition at 5 µg/mL [1] was 53.3% and the inhibition in vivo at 10 mg/kg (blood glucose level) was 27.6%.

With `Cn1c(COc2ccc(CC3SC(=O)NC3=O)cc2)cc2ccccc21` (stereo not drawn) [Example 10, 5-[4-(1-Methylindol-2-ylmethoxy)benzyl]thiazolidine-2,4-dione] the inhibition in vivo at 1 mg/kg (blood glucose level) was 11.6%.

With `CCn1c(COc2ccc(CC3SC(=O)NC3=O)cc2)nc2cccnc21` (stereo not drawn) [Example 12, 5-{4-(3-Ethyl-3H-imidazo[4,5-b]pyridin-2-ylmethoxy)-benzyl}thiazolidine-2,4-dione] the IC50 [1] was 4.45 µM.

Molecule `Cn1c(COc2ccc(CC3SC(=O)NC3=O)cc2)nc2ncccc21` (stereo not drawn) [Example 13] has an IC50 [1] of 7.06 µM and an inhibition in vivo at 1 mg/kg (blood glucose level) of 34%.

`Cn1c(CCCOc2ccc(CC3SC(=O)NC3=O)cc2)nc2cccnc21` (stereo not drawn) [Example 14, 5-[4-{3-(3-Methyl-3H-imidazo[4,5-b]pyridin-2-yl)-propoxy}-benzyl]thiazolidine-2,4-dione] gave an inhibition at 5 µg/mL [1] of 53.9%.

Molecule `O=C1NC(=O)C(Cc2ccc(OCc3nc4ncccc4[nH]3)cc2)S1` (stereo not drawn) [Example 15, 5-{4-(1H-Imidazo[4,5-b]pyridin-2-ylmethoxy)benzyl}-thiazolidine-2,4-dione] has an IC50 [1] of 6.77 µM and an inhibition in vivo at 1 mg/kg (blood glucose level) of 13.8%.

For `Cc1ccnc2c1nc(COc1ccc(CC3SC(=O)NC3=O)cc1)n2C` (stereo not drawn) [Example 16, 5-{4-(3,7-Dimethyl-3H-imidazo[4,5-b]pyridin-2-ylmethoxy)benzyl}thiazolidine-2,4-dione], the IC50 [1] was 9.67 µM and the inhibition at 5 µg/mL [1] was 59.1%.

In the case of `Cn1c(COc2ccc(CC3SC(=O)NC3=O)cc2)nc2ccc(Cl)nc21` (stereo not drawn) [Example 17, 5-{4-(5-Chloro-3-methyl-3H-imidazo[4,5-b]pyridin-2-ylmethoxy)benzyl}thiazolidine-2,4-dione], the IC50 [1] is reported as 4.47 µM, the inhibition in vivo at 1 mg/kg (blood glucose level) is reported as 37.1% and the mortality rate (male F344 rats) is reported as “zero”. For the same molecule, the “abnormalities which could be attributed to the test compounds” value (male F344 rats) was “no abnormalities”.

For `Cn1c(COc2ccc(CC3SC(=O)NC3=O)cc2)nc2cc(C(F)(F)F)cnc21` (stereo not drawn) [Example 18, 5-{4-(3-Methyl-6-trifluoromethyl-3H-imidazo[4,5-b]pyridin-2-ylmethoxy)benzyl}thiazolidine-2,4-dione], the IC50 [1] was 2.02 µM and the inhibition at 5 µg/mL [1] was 76.3%.

`O=C1NC(=O)C(Cc2ccc(OCc3nc4cccnc4n3Cc3ccc(Cl)cc3)cc2)S1` (stereo not drawn) [Example 20, 5-(4-{3-(4-Chlorobenzyl)-3H-imidazo[4,5-b]pyridin-2-ylmethoxyl}benzyl)thiazolidine-2,4-dione] was tested, and the IC50 [1] was 3.76 µM, the inhibition at 5 µg/mL [1] was 61.6% and the inhibition in vivo at 1 mg/kg (blood glucose level) was 24.5%.

`Cn1c(COc2ccc(CC3SC(=O)NC3=O)cc2)nc2cc(Br)cnc21` (stereo not drawn) [Example 22, 5-{4-(6-Bromo-3-methyl-3H-imidazo[4,5-b]pyridin-2-ylmethoxy)benzyl}thiazolidine-2,4-dione] gave an IC50 [1] of 4.02 µM, an inhibition at 5 µg/mL [1] of 77.2% and an inhibition in vivo at 1 mg/kg (blood glucose level) of 10.2%.

`Cn1c(COc2ccc(CC3SC(=O)NC3=O)cc2)nc2cc(Cl)cnc21` (stereo not drawn) [Example 23, 5-{4-(6-Chloro-3-methyl-3H-imidazo[4,5-b]pyridin-2-ylmethoxy)benzyl}thiazolidine-2,4-dione] gave an IC50 [1] of 3.23 µM, an inhibition at 5 µg/mL [1] of 94.9% and an inhibition in vivo at 1 mg/kg (blood glucose level) of 21.7%.

For `Cn1c(COc2ccc(CC3SC(=O)NC3=O)cc2)nc2cnccc21` (stereo not drawn) [Example 25], the IC50 [1] was 2.42 µM and the inhibition at 5 µg/mL [1] was 81.6%.

In the case of `O=C1NC(=O)C(Cc2ccc(OCc3nc4cccnc4n3-c3ccccc3)cc2)S1` (stereo not drawn) [Example 27], the IC50 [1] is reported as 1.97 µM and the inhibition at 5 µg/mL [1] is reported as 91.8%.
